According to patent US8969325B2, “TRPV1 antagonists” (AbbVie Inc., priority 2011, dated 2015):

Experiments:
human TRPV1 [1] = target: T1, human TRPV1 (Homo sapiens (Human), UniProt Q8NER1); experiment: Capsaicin Activation Assay (intracellular Ca2+, FLIPR); format: cell-based; settings: recombinant HEK293 cells expressing hTRPV1, 50 nM capsaicin
Method in brief: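 Ca2+ fluorescence was recorded by FLIPR every 1 to 5 seconds in HEK293 cells, clonally selected for stable human TRPV1 expression and plated one day ahead. Test compounds came as serial dilutions of 10 mM DMSO stocks.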

human TRPV1 [2] = target: T1, human TRPV1; experiment: Acid Activation Assay (pH 5.0, intracellular Ca2+, FLIPR); format: cell-based; settings: percentage of the maximal pH 5.0-induced response remaining; recombinant HEK293 hTRPV1 cells; maximum concentration tested 37.5 μM
Method in brief: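 Readout: peak [Ca2+]i fluorescence over baseline on FLIPR, expressed as percentage remaining of the maximal pH 5.0-evoked signal. Stable hTRPV1-HEK293 cells with Calcium-4 dye received compound (12 half-log concentrations, maximum 37.5 μM) 3 min before acidic pH 5.0 buffer.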

T1 sequence (Q8NER1 whole entry): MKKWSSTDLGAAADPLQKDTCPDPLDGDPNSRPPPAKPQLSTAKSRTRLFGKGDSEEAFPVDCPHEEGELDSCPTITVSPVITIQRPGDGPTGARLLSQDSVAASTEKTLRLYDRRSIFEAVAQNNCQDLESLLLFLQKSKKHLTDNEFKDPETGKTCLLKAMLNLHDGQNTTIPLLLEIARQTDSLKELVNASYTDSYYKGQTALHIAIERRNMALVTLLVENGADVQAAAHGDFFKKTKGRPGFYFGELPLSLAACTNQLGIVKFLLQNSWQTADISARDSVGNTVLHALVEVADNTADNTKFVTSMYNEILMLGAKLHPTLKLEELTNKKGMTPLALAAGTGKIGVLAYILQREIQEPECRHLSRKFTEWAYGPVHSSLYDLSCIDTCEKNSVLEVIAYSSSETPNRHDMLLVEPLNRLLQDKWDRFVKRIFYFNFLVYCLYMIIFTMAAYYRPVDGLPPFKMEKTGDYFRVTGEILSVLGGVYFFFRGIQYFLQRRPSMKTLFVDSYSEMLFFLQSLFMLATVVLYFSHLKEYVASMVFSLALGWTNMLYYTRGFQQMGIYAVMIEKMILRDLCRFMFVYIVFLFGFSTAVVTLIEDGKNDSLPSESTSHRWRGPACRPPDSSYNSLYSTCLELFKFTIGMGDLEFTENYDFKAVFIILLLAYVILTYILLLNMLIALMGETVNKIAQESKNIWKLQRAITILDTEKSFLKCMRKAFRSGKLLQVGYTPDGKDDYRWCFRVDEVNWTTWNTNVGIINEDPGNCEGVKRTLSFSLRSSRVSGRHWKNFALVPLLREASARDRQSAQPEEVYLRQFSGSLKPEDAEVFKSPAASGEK

SMILES | IC50 (human TRPV1 [1]) [nM] | human TRPV1 H^+ (max % remain) (human TRPV1 [2]) [%]
Cn1c(=O)ccc2c(NC(=O)N[C@@H]3CC(CF)(CF)Oc4c(F)cc(F)cc43)cccc21 [Example 72, 1-[(4R)-6,8-difluoro-2,2-bis(fluoromethyl)-3,4-dihydro-2H-chromen-4-yl]-3-(1-methyl-2-oxo-1,2-dihydroquinolin-5-yl)urea] | 54 | 36
C[C@]1(CF)C[C@@H](NC(=O)Nc2ccc3c(c2)NC(=O)CO3)c2ccc(C(F)(F)F)cc2O1 [Example 128, 1-[(2R,4R)-2-(fluoromethyl)-2-methyl-7-(trifluoromethyl)-3,4-dihydro-2H-chromen-4-yl]-3-(3-oxo-3,4-dihydro-2H-1,4-benzoxazin-6-yl)urea] | 34 | 99
CCC1(CC)C[C@@H](NC(=O)Nc2cccc3c2CNC(=O)N3C)c2ccc(C(F)(F)F)cc2O1 [Example 144, 1-[(4R)-2,2-diethyl-7-(trifluoromethyl)-3,4-dihydro-2H-chromen-4-yl]-3-(1-methyl-2-oxo-1,2,3,4-tetrahydroquinazolin-5-yl)urea] | 130 | 5
CN1C(=O)NCc2c(NC(=O)N[C@@H]3C[C@](C)(CF)Oc4ccccc43)cccc21 [Example 163, 1-[(2R,4R)-2-(fluoromethyl)-2-methyl-3,4-dihydro-2H-chromen-4-yl]-3-(1-methyl-2-oxo-1,2,3,4-tetrahydroquinazolin-5-yl)urea] | 220 | 33
Cn1c(=O)ccc2c(NC(=O)N[C@@H]3CC4(CCCC4)Oc4ccccc43)cccc21 [Example 65, 1-[(4R)-3,4-dihydrospiro[chromene-2,1′-cyclopentan]-4-yl]-3-(1-methyl-2-oxo-1,2-dihydroquinolin-5-yl)urea] | 28 | 37
Cn1c(=O)ccc2c(NC(=O)N[C@@H]3C[C@](C)(C(F)(F)F)Oc4ccccc43)cccc21 [Example 90, 1-(1-methyl-2-oxo-1,2-dihydroquinolin-5-yl)-3-[(2R,4R)-2-methyl-2-(trifluoromethyl)-3,4-dihydro-2H-chromen-4-yl]urea] | 11 | 45
CCC1(CC)C[C@@H](NC(=O)Nc2ccc3c(c2)N(C)C(=O)CC3)c2ccc(Cl)c(Cl)c2O1 [Example 264, 1-[(4R)-7,8-dichloro-2,2-diethyl-3,4-dihydro-2H-chromen-4-yl]-3-(1-methyl-2-oxo-1,2,3,4-tetrahydroquinolin-7-yl)urea] | 170 | 82
CN1C(=O)NCc2c(NC(=O)N[C@@H]3CC(C)(C(F)F)Oc4cc(Cl)ccc43)cccc21 (stereo partly drawn) [Example 136, 1-[(4R)-7-chloro-2-(difluoromethyl)-2-methyl-3,4-dihydro-2H-chromen-4-yl]-3-(1-methyl-2-oxo-1,2,3,4-tetrahydroquinazolin-5-yl)urea] | 23 | 26
CN1C(=O)CCc2ccc(NC(=O)N[C@@H]3CC(C)(C)Oc4nc(C(F)(F)F)ccc43)cc21 [Example 295, 1-[(4R)-2,2-dimethyl-7-(trifluoromethyl)-3,4-dihydro-2H-pyrano[2,3-b]pyridin-4-yl]-3-(1-methyl-2-oxo-1,2,3,4-tetrahydroquinolin-7-yl)urea] | 99 | 67
CN1C(=O)NCc2c(NC(=O)N[C@@H]3CCOc4c3cccc4C(C)(C)C)cccc21 [Example 142, 1-[(4R)-8-tert-butyl-3,4-dihydro-2H-chromen-4-yl]-3-(1-methyl-2-oxo-1,2,3,4-tetrahydroquinazolin-5-yl)urea] | 110 | 18
CN1C(=O)CCc2ccc(NC(=O)N[C@@H]3CC(CF)(CF)Oc4c(F)cc(F)cc43)cc21 [Example 268, 1-[(4R)-6,8-difluoro-2,2-bis(fluoromethyl)-3,4-dihydro-2H-chromen-4-yl]-3-(1-methyl-2-oxo-1,2,3,4-tetrahydroquinolin-7-yl)urea] | 1200 | 66
CC1(C)C[C@H](NC(=O)Nc2ccc3c(c2)NC(=O)CO3)c2cc(F)ccc2O1 [Example 123, 1-[(4S)-6-fluoro-2,2-dimethyl-3,4-dihydro-2H-chromen-4-yl]-3-(3-oxo-3,4-dihydro-2H-1,4-benzoxazin-6-yl)urea] | > 38000 | 94
Cn1c(=O)ccc2c(NC(=O)N[C@H]3CC4(CCC4)Oc4ccc(F)cc43)cccc21 [Example 88, 1-[(4S)-6-fluoro-3,4-dihydrospiro[chromene-2,1′-cyclobutan]-4-yl]-3-(1-methyl-2-oxo-1,2-dihydroquinolin-5-yl)urea] | 2500 | 51
C[C@@]1(C(F)F)C[C@@H](NC(=O)Nc2ccc3c(c2)NC(=O)CO3)c2ccc(Cl)cc2O1 [Example 322, 1-[(2S,4R)-7-chloro-2-(difluoromethyl)-2-methyl-3,4-dihydro-2H-chromen-4-yl]-3-(3-oxo-3,4-dihydro-2H-1,4-benzoxazin-6-yl)urea] | 46 | 76
CN1C(=O)NCc2c(NC(=O)N[C@@H]3CC(C)(C)Oc4cc(F)ccc43)cccc21 [Example 1, 1-[(4R)-7-fluoro-2,2-dimethyl-3,4-dihydro-2H-chromen-4-yl]-3-(1-methyl-2-oxo-1,2,3,4-tetrahydroquinazolin-5-yl)urea] | 10 | 25
CN1C(=O)CCc2ccc(NC(=O)N[C@@H]3CC(C)(C)Oc4c3ccc(F)c4F)cc21 [Example 299, 1-[(4R)-7,8-difluoro-2,2-dimethyl-3,4-dihydro-2H-chromen-4-yl]-3-(1-methyl-2-oxo-1,2,3,4-tetrahydroquinolin-7-yl)urea] | 54 | 84
CN1C(=O)CCc2ccc(NC(=O)N[C@H]3CC4(CCC4)Oc4ccc(F)cc43)cc21 [Example 286, 1-[(4S)-6-fluoro-3,4-dihydrospiro[chromene-2,1′-cyclobutan]-4-yl]-3-(1-methyl-2-oxo-1,2,3,4-tetrahydroquinolin-7-yl)urea] | 260 | 68
O=C1CCc2ccc(NC(=S)N[C@@H]3CC(CF)(CF)Oc4cc(Cl)ccc43)cc2N1 [Example 252, 1-[(4R)-7-chloro-2,2-bis(fluoromethyl)-3,4-dihydro-2H-chromen-4-yl]-3-(2-oxo-1,2,3,4-tetrahydroquinolin-7-yl)thiourea] | 13 | 48
CCC1(CC)C[C@@H](NC(=O)Nc2ccc3c(c2)NC(=O)N(C)C3)c2ccc(OC(F)(F)F)cc2O1 [Example 191, 1-[(4R)-2,2-diethyl-7-(trifluoromethoxy)-3,4-dihydro-2H-chromen-4-yl]-3-(3-methyl-2-oxo-1,2,3,4-tetrahydroquinazolin-7-yl)urea] | 450 | 19
O=C(Nc1ccc2c(c1)NC(=O)N(CCO)C2)N[C@@H]1CC(CF)(CF)Oc2c(F)cccc21 [Example 315, 1-[(4R)-8-fluoro-2,2-bis(fluoromethyl)-3,4-dihydro-2H-chromen-4-yl]-3-[3-(2-hydroxyethyl)-2-oxo-1,2,3,4-tetrahydroquinazolin-7-yl]urea] | 830 | 18
CCCC1(CCC)C[C@@H](NC(=O)Nc2ccc3c(c2)NC(=O)N(C)C3)c2cccc(F)c2O1 [Example 190, 1-[(4R)-8-fluoro-2,2-dipropyl-3,4-dihydro-2H-chromen-4-yl]-3-(3-methyl-2-oxo-1,2,3,4-tetrahydroquinazolin-7-yl)urea] | 450 | 79
CC1(C)C[C@@H](NC(=O)Nc2ccc3c(c2)NC(=O)N(CCO)C3)c2ccc(C(F)(F)F)cc2O1 [Example 48, 1-[(4R)-2,2-dimethyl-7-(trifluoromethyl)-3,4-dihydro-2H-chromen-4-yl]-3-[3-(2-hydroxyethyl)-2-oxo-1,2,3,4-tetrahydroquinazolin-7-yl]urea] | 21 | 1
O=C1CCc2ccc(NC(=O)N[C@@H]3CC(CF)(CF)Oc4c(F)cccc43)cc2N1 [Example 216, 1-[(4R)-8-fluoro-2,2-bis(fluoromethyl)-3,4-dihydro-2H-chromen-4-yl]-3-(2-oxo-1,2,3,4-tetrahydroquinolin-7-yl)urea] | 220 | 50
CN1C(=O)NCc2c(NC(=O)N[C@@H]3CC(CF)(CF)Oc4cc(C(F)(F)F)ccc43)cccc21 [Example 146, 1-[(4R)-2,2-bis(fluoromethyl)-7-(trifluoromethyl)-3,4-dihydro-2H-chromen-4-yl]-3-(1-methyl-2-oxo-1,2,3,4-tetrahydroquinazolin-5-yl)urea] | 38 | 15
Cn1c(=O)ccc2c(NC(=O)N[C@@H]3CCc4cc(C(F)(F)F)ccc43)cccc21 [Example 86, 1-(1-methyl-2-oxo-1,2-dihydroquinolin-5-yl)-3-[(1R)-5-(trifluoromethyl)-2,3-dihydro-1H-inden-1-yl]urea] | 10 | 23
O=C1COc2ccc(NC(=O)NCC3COc4ccc(F)cc4C3)cc2N1 (stereo not drawn) [Example 133, 1-[(6-fluoro-3,4-dihydro-2H-chromen-3-yl)methyl]-3-(3-oxo-3,4-dihydro-2H-1,4-benzoxazin-6-yl)urea] | 2500 | 100
CC1(C)C[C@@H](NC(=O)Nc2ccc3c(c2)NC(=O)CO3)c2ccc(C(F)(F)F)cc2O1 [Example 106, 1-[(4R)-2,2-dimethyl-7-(trifluoromethyl)-3,4-dihydro-2H-chromen-4-yl]-3-(3-oxo-3,4-dihydro-2H-1,4-benzoxazin-6-yl)urea] | 94 | 98
